In patent US10344330B2, “Glatiramer acetate response biomarker mRNA potency assay” (Mylan Inc., priority 2013, dated 2019):

B1: MBP: myelin basic protein, a negative control (protein, UniProt P02686 1-304, looked up)
Myelin basic protein: MGNHAGKRELNAEKASTNSETNRGESEKKRNLGELSRTTSEDNEVFGEADANQNNGTSSQDTAVTDSKRTADPKNAWQDAHPADPGSRPHLIRLFSRDAPGREDNTFKDRPSESDELQTIQEDSAATSESLDVMASQKRPSQRHGSKYLATASTMDHARHGFLPRHRDTGILDSIGRFFGGDRGAPKRGSGKDSHHPARTAHYGSLPQKSHGRTQDENPVVHFFKNIVTPRTPPPSQGKGRGLSLSRFSWGAEGQRPGFGYGGRASDYKSAHKGFKGVDAQGTLSKIFKLGGRDSRSGSPMARR

Test system: IL-10 mRNA in LN cells
Test: IL-10 mRNA by real-time PCR in LN cells of GA-immunized CD-1, BALB/cByJ, SJL/J mice (Example III)
Format: cell-based, mouse
Details: 6 hours
Procedure: On Day 0, mice were immunized with 250 μg GA (GMA, Mylan Pharmaceuticals, Inc.) and CFA. The GA solution (20 mg/mL) was diluted with Dulbecco's Phosphate-Buffered Saline to 5 mg/mL. The dosing formulation consisted of equal volumes of the diluted GA solution (5 mg/mL) and CFA solution, mixed until well-emulsified. Animals were weighed and allocated to groups. Animals were dosed by injection into four footpads. The injection volume per animal was 0.1 mL (about 10 μL into each front footpad, and 40 μL into each hind footpad).
Immunized animals were euthanized by cervical dislocation on Day 10 post-immunization. Lymph node cells were isolated from animals and treated with Myelin Basic Protein (MBP, a negative control), Concanavalin A (ConA, a positive control) or GA as shown in Table 16. Lymph nodes in the axillary and popliteal regions were removed aseptically in a purifier clean bench. […] The LN were then washed 3 times with −5 mL of RPMI medium, and isolated by pressing the LN with a syringe plunger. […] The cell suspension was centrifuged at about 200×g for 10 minutes at about 4° C. and re-suspended in ice cold enriched DCCM-1 medium. Cells were seeded in 96-well tissue culture plates.
LN cells isolated from GA-immunized animals were stimulated with GA (GMA, Mylan Pharmaceuticals, Inc.) at concentrations as indicated in Tables 16 and 17. A positive control was prepared by treating LN cells with 2.5 μg/mL concavalin A (ConA, a non-specific T cell stimulant). Myelin basic protein (MBP, 10 μg/mL) and enriched DCCM-1 medium served as negative controls. The cells from all groups each were stimulated with the same GA lot. Each reaction was set up in triplicate.
After incubation at about 37° C. in a humidified CO2 incubator for 6 hours, the cells were lysed for total RNA isolation. Total RNA was isolated from treated LN cells using SV 96 Total RNA Isolation System according to the manufacturer's protocol (Promega, Cat. #Z3500). Cells were washed once with Phosphate Buffered Saline (PBS) and lysed in RNA lysis buffer. The lysate was transferred to wells of the SV 96 binding plate. Samples were washed with RNA wash solution and treated with DNase. Total RNA was eluted with nuclease-free water from the binding plate.
After the reverse transcriptase reaction was completed, cDNA samples were used directly for real-time PCR to measure the response biomarker mRNA levels produced by the stimulated cells. […] All probes for target genes contained FAM dye, and probes for the internal control contained VIC®/MGB dye. Samples will be prepared and run in 96-well plates using a Real-Time PCR system (7500, Life Technologies). This system allows direct detection of PCR-product formation by measuring the increase in fluorescent emission continuously during the PCR reaction. A relative quantitation method was used to analyze changes in mouse IL-2, IL-4, IL-5, IL-10, IL-13, IFN-γ and TNF-α expression in GA-treated samples relative to the untreated control (enriched DCCM-1 treated) samples. The Real-Time PCR program was:
The levels of mouse cytokine amplicons (IL-2, IL-4, IL-5, IL-10, IL-13, mIFN-γ and TNF-α) were normalized to internal probe levels (GAPDH) from the same samples. The following equations were used to calculate the relative increase in response to GA stimulation compared to the control sample: ΔCT=CT_target−CT_reference ΔΔCT=−ΔCT_Treated−CT_VC

[1] = Group 1C: CD-1, GA-immunized, stimulation 10 μg/mL
[2] = Group 2C: BALB/cByJ, GA-immunized, stimulation 10 μg/mL
[3] = Group 3C: SJL/J, GA-immunized, stimulation 10 μg/mL

Row | Molecule | IL-10 mRNA Expression (Group 1C: CD-1, GA-immunized, stimulation 2.5 μg/mL) [fold change vs control] | IL-10 mRNA Expression (Group 2C: BALB/cByJ, GA-immunized, stimulation 2.5 μg/mL) [fold change vs control] | IL-10 mRNA Expression (Group 3C: SJL/J, GA-immunized, stimulation 2.5 μg/mL) [fold change vs control] | IL-10 mRNA Expression (Group 1C: CD-1, GA-immunized, stimulation 0.3 μg/mL) [fold change vs control] | IL-10 mRNA Expression (Group 1C: CD-1, GA-immunized, stimulation 1 μg/mL) [fold change vs control] | IL-10 mRNA Expression (Group 1C: CD-1, GA-immunized, stimulation 3 μg/mL) [fold change vs control] | IL-10 mRNA Expression [1] [fold change vs control] | IL-10 mRNA Expression (Group 2C: BALB/cByJ, GA-immunized, stimulation 0.3 μg/mL) [fold change vs control] | IL-10 mRNA Expression (Group 2C: BALB/cByJ, GA-immunized, stimulation 1 μg/mL) [fold change vs control] | IL-10 mRNA Expression (Group 2C: BALB/cByJ, GA-immunized, stimulation 3 μg/mL) [fold change vs control] | IL-10 mRNA Expression [2] [fold change vs control] | IL-10 mRNA Expression (Group 3C: SJL/J, GA-immunized, stimulation 0.3 μg/mL) [fold change vs control] | IL-10 mRNA Expression (Group 3C: SJL/J, GA-immunized, stimulation 1 μg/mL) [fold change vs control] | IL-10 mRNA Expression (Group 3C: SJL/J, GA-immunized, stimulation 3 μg/mL) [fold change vs control] | IL-10 mRNA Expression [3] [fold change vs control]
1 | Concanavalin A [ConA, reference compound] | 0.4 | 0.9 | 0.4 | – | – | – | – | – | – | – | – | – | – | – | –
2 | L-glutamic acid polymer with L-alanine, L-lysine and L-tyrosine, acetate (salt) [GA] | – | – | – | 0.7 | 0.8 | 0.9 | 0.9 | 0.7 | 1.0 | 1.3 | 1.3 | 0.5 | 0.6 | 0.5 | 0.8
3 | B1 | – | – | – | – | – | – | 0.7 | – | – | – | 1.0 | – | – | – | 0.3
